Key:
Assay in all cases: relative viability (nuclei count vs DMSO), 5 days (fraction); higher = more cells survive
Masitinib + Tozasertib = compound: Cc1ccc(NC(=O)c2ccc(CN3CCN(C)CC3)cc2)cc1Nc1nc(-c2cccnc2)cs1 [Masitinib] + Cc1cc(Nc2cc(N3CCN(C)CC3)nc(Sc3ccc(NC(=O)C4CC4)cc3)n2)n[nH]1 [Tozasertib] (partner 0.1 µM)
Summary of the method: (§1)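 Values are medians from duplicate plates. Each reflects relative viability, defined as the nuclei count of treated wells over that of vehicle wells. Lung cancer cell lines in 1536-well plates were pin-tool dosed one day after seeding with one drug alone or with a fixed anchor-drug dose plus five library-drug doses (not always all listed) in √10 steps, then fixed, stained and imaged at 4× after 5 days.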

[1] = compound: CC1=CC(=CC=C1)NC2=NC(=CS2)C3=CC=NC=C3 + Nc1ncn([C@H]2C[C@H](O)[C@@H](CO)O2)c(=O)n1 [Decitabine] (partner 2 µM)
Summary of the method: as §1

Masitinib + Vorinostat = compound: Cc1ccc(NC(=O)c2ccc(CN3CCN(C)CC3)cc2)cc1Nc1nc(-c2cccnc2)cs1 [Masitinib] + O=C(CCCCCCC(=O)Nc1ccccc1)NO [Vorinostat] (partner 1 µM)
Summary of the method: as §1

[2] = compound: CC1=CC(=CC=C1)NC2=NC(=CS2)C3=CC=NC=C3 + C[C@@H](Oc1cc(-c2cnn(C3CCNCC3)c2)cnc1N)c1c(Cl)ccc(F)c1Cl [Crizotinib] (partner 1 µM)
Summary of the method: as §1

| Cell Line | relative viability (Masitinib + Tozasertib; first compound 0.01 µM) | relative viability (Masitinib + Tozasertib; first compound 0.03162 µM) | relative viability (Masitinib + Tozasertib; first compound 0.1 µM) | relative viability (Masitinib + Tozasertib; first compound 0.3162 µM) | relative viability (Masitinib + Tozasertib; first compound 1 µM) | relative viability ([1]; first compound 0.08 µM) | relative viability ([1]; first compound 0.253 µM) | relative viability ([1]; first compound 0.8 µM) | relative viability ([1]; first compound 2.53 µM) | relative viability ([1]; first compound 8 µM) | relative viability (Masitinib + Vorinostat; first compound 0.01 µM) | relative viability (Masitinib + Vorinostat; first compound 0.03162 µM) | relative viability (Masitinib + Vorinostat; first compound 0.1 µM) | relative viability (Masitinib + Vorinostat; first compound 0.3162 µM) | relative viability (Masitinib + Vorinostat; first compound 1 µM) | relative viability ([2]; first compound 0.08 µM) | relative viability ([2]; first compound 0.253 µM) | relative viability ([2]; first compound 0.8 µM) | relative viability ([2]; first compound 2.53 µM) | relative viability ([2]; first compound 8 µM) |
| --- | --- | --- | --- | --- | --- | --- | --- | --- | --- | --- | --- | --- | --- | --- | --- | --- | --- | --- | --- | --- |
| NCI-H460 | 0.288 | 0.4 | 0.313 | 0.0644 | 0.168 | 0.445 | 0.432 | 0.464 | 0.405 | 0.402 | 0.766 | 0.418 | 0.841 | 0.647 | 0.758 | 0.753 | 0.827 | 0.913 | 1 | 0.811 |
| LOU-NH91 | 0.641 | 0.666 | 0.728 | 0.588 | 0.626 | 0.744 | 0.797 | 0.728 | 0.825 | 0.78 | 0.84 | 0.795 | 0.884 | 0.793 | 0.883 | 0.706 | 0.759 | 0.717 | 0.728 | 0.693 |
| NCI-H322M | 0.452 | 0.513 | 0.485 | 0.449 | 0.467 | 0.736 | 0.703 | 0.67 | 0.706 | 0.691 | 0.831 | 0.821 | 0.881 | 0.91 | 0.882 | 0.846 | 0.808 | 0.775 | 0.859 | 0.834 |
| NCI-H520 | 0.368 | 0.476 | 0.566 | 0.451 | 0.358 | 0.55 | 0.468 | 0.541 | 0.586 | 0.61 | 0.796 | 0.703 | 0.755 | 0.932 | 0.687 | 0.741 | 0.9 | 0.81 | 0.839 | 0.939 |
| NCI-H661 | 0.338 | 0.372 | 0.344 | 0.342 | 0.363 | 0.514 | 0.585 | 0.556 | 0.505 | 0.533 | 0.785 | 0.801 | 0.774 | 0.805 | 0.821 | 0.974 | 1 | 0.925 | 0.935 | 0.908 |
| NCI-H727 | 0.691 | 0.597 | 0.69 | 0.664 | 0.548 | 0.88 |  | 0.864 |  | 0.836 | 1.13 | 1.36 | 1.38 | 0.988 | 1.09 | 0.621 | 0.737 | 0.922 | 0.759 | 0.575 |
| NCI-H1944 |  | 0.214 |  | 0.205 | 0.247 | 0.367 | 0.426 | 0.399 | 0.361 | 0.389 |  | 0.528 |  | 0.547 | 0.5 | 1.08 | 0.98 | 0.973 | 1.01 | 0.948 |
| NCI-H1755 |  | 0.573 | 0.57 | 0.57 | 0.454 | 0.654 | 0.702 | 0.701 | 0.617 | 0.604 | 0.617 | 0.732 | 0.647 | 0.758 | 0.693 | 0.86 | 0.815 | 0.803 | 0.729 | 0.522 |

— the supplement of paper PMC10307832
